Publication PMC12852734, “Design of precision therapeutics for a CKD risk allele by targeting Shroom3-Rock interaction” (Nature Communications, 2025)

Key:
ROCK1 [1] = biological target: T1, ROCK1 (Homo sapiens, UniProt Q13464); assay: anti-V5 co-immunoprecipitation of SHROOM3-ROCK1 from treated WT-Sh3 HEK-293T cells; type: cell-based; design: with SHROOM3
Target sequence in this assay (Q13464 2-1354): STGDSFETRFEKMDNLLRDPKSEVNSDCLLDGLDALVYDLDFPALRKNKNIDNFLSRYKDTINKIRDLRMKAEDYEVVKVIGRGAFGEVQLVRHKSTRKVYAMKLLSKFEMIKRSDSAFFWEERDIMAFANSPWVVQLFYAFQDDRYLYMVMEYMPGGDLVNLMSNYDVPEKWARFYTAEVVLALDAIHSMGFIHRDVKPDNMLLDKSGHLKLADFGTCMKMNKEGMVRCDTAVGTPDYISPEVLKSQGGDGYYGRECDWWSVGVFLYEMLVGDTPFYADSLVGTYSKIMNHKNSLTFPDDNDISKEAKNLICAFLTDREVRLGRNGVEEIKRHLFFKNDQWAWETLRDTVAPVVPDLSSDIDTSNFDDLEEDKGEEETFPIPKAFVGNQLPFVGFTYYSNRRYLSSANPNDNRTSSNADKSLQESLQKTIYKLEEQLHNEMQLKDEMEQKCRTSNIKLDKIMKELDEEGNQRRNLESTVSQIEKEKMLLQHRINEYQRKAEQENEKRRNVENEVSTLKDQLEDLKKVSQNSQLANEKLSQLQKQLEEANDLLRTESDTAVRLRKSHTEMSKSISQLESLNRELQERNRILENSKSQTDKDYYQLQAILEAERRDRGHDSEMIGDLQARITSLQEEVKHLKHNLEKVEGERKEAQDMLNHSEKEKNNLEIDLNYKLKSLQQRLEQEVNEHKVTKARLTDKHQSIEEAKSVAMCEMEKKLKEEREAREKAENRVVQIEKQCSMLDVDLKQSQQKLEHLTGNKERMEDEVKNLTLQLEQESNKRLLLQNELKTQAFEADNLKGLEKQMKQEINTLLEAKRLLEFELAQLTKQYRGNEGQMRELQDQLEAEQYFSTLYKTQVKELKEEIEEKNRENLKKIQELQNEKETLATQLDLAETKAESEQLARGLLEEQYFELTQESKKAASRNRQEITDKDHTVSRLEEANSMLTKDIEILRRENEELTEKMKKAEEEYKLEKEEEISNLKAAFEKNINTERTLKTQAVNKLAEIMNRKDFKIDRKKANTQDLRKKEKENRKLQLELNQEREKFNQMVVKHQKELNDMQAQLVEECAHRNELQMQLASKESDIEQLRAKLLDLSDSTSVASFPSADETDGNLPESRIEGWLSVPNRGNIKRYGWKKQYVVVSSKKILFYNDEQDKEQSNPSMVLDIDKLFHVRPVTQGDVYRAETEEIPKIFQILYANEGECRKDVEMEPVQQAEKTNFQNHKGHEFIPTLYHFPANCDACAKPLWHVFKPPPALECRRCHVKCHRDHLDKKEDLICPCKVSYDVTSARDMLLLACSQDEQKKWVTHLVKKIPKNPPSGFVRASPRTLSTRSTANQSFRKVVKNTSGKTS
Target sequence in this assay (Q8TF72 whole entry partner): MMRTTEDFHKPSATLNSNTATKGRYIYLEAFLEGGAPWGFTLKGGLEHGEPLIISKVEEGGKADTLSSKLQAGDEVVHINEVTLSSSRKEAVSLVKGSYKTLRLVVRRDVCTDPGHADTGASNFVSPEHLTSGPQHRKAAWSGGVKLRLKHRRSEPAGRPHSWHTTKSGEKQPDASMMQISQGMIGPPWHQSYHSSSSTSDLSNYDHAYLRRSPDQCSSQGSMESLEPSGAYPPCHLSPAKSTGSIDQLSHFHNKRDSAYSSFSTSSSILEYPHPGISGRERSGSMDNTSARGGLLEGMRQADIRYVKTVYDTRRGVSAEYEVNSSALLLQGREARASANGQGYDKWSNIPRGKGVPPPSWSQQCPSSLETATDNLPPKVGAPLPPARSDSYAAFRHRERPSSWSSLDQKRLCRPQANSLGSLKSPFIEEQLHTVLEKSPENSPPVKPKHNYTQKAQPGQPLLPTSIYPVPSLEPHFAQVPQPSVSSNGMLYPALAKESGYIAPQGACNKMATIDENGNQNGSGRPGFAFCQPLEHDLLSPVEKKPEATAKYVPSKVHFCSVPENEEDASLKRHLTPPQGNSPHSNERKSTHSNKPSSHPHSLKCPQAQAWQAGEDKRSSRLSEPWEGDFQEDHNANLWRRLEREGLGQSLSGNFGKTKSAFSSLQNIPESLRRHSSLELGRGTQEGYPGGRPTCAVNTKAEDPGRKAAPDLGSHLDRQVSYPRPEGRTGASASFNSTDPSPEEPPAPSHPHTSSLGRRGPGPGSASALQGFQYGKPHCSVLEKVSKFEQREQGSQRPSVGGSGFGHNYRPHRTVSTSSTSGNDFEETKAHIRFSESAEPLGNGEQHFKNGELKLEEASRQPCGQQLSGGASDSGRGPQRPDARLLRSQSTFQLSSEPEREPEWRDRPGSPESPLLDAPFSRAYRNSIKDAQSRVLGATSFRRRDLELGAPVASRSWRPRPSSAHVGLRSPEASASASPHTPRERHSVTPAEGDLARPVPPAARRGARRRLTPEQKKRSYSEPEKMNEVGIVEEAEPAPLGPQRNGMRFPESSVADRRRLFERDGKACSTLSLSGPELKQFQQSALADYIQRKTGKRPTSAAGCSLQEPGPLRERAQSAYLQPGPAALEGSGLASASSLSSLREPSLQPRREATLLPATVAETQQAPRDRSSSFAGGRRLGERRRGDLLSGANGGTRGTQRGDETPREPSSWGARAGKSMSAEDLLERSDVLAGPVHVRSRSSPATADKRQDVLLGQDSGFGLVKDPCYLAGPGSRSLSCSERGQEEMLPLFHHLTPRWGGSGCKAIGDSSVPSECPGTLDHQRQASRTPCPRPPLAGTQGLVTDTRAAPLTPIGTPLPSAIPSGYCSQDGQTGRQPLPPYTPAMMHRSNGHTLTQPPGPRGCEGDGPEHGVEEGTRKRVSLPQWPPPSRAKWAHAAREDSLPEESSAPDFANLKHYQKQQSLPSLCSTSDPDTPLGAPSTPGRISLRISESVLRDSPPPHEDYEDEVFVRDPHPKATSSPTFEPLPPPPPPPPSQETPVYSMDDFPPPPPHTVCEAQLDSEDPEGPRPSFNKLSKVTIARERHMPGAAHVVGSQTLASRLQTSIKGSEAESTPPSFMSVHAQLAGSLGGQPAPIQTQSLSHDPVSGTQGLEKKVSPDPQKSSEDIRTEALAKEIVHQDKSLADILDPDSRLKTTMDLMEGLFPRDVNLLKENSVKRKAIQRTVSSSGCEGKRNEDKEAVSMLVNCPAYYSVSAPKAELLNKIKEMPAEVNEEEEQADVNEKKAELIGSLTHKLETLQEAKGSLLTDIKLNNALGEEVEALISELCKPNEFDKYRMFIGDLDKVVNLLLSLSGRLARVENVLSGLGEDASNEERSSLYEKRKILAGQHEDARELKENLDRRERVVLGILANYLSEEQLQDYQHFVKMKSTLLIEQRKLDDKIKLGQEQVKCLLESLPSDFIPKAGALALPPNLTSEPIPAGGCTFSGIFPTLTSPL

ROCK1 [2] = biological target: T1, ROCK1
Target sequence in this assay (Q13464 2-1354): as the sequence (Q13464 2-1354) above

SMILES	anti-V5 co-immunoprecipitation of SHROOM3-ROCK1 from treated WT-Sh3 HEK-293T cel (ROCK1 [1])	kinase hot spot assay in the absence of SHROOM3 (Fig. S7j) (ROCK1 [2])
F[B-](F)(F)c1ccc(C2NC(=S)NC3=C2CCc2ccccc23)cc1 (centres unmarked) [D4G, potassium trifluoro (4-(2-thioxo-1,2,3,4,5,6-hexahydrobenzo [h]quinazolin-4-yl)phenyl) borate]	the interaction of SHROOM3 with ROCK1 was diminished with D4G-treatment vs DMSO-treatment in WT-Sh3 overexpressing HEK-293T	–
O=c1[nH]ccc2c(S(=O)(=O)N3CCCNCC3)cccc12 [HF, Hydroxy Fasudil]	–	HF inhibited Rock1, Rock2 (as expected), but showed significant off-target kinase inhibition (except Fyn)
